Key:
B16-F0 [1] = assay: MTT assay, B16-F0; type: cell-based; conditions: Mus musculus
Procedure: (§1) Cell density measurements were performed using a hemocytometer to count reproductive cells resistant to staining with trypan blue. Approximately 20,000 cells were plated into each well of 96-well flat-bottomed micro-titer plates. After 12 h or 24 h incubation at 37° C., medium containing either COH-SR4 (ranging 0-200 μM) or elesclomol (ranging 0-20 μM) were added to the cells. After 24 h, 48 h or 96 h incubation, 20 μL of 5 mg/mL MTT were introduced to each well and incubated for 2 h. The plates were centrifuged and medium was decanted. Cells were subsequently dissolved in 100 μl DMSO with gentle shaking for 2 h at room temperature, followed by measurement of OD570 (91).
Cells of highly aggressive mouse melanoma cell line B16-F0 or human melanoma cell line Hs600T were incubated with various doses of COH-SR4 (1, 2.5, 5, 10, 25, 50, or 100 μM). The cell viabilities after treatment of 48 hours and 96 hours were measured and summarized in FIGS. 54A and 55A, respectively. […] Data were presented as mean±Standard Deviation from two separate determinations with eight replicate each (n=16).

H1417 cells = assay: MTT assay, H1417; type: cell-based; conditions: Homo sapiens, NCI-H1417, 48 h
Procedure: as §1
The effect of COH-SR4 was first examined in a NCI panel of cancer cell lines, the results of which indicated good activity of COH-SR4 towards lung cancer (FIG. 78A). […] Values are presented as mean±SD from two separate determinations with eight replicates each (n=16) (FIG. 78B). […] Standard colony-forming assay was performed and the colonies were counted using Innotech Alpha Imager HP. […] TUNEL assay was performed using Promega fluorescence detection kit and examined using Zeiss LSM 510 META laser-scanning fluorescence microscope with filters 520 and 620 nm. […]

H358 lung cancer = type: in vivo; conditions: day 60; 4 mg/kg b.w. oral alternate day; control 2.02±0.3 g
Procedure: For lung cancer studies, twelve 10-weeks-old mice were divided into two groups of 6 animals (treated with corn oil (vehicle), and COH-SR4 compound 4 mg/kg b.w.). All animals were injected with 2×10^6 H358 cells suspensions in 100 μL of PBS, subcutaneously into one flank of each mouse. At the same time, animals were randomized treatment groups as well as control groups. Treatment was started 10 days after the implantation to see palpable tumor growth. Treatment consisted of 0.1 mg of COH-SR4/m ice in 200 μL corn oil by oral gavage alternate day. Control groups were treated with 200 μL corn oil by oral gavage alternate day. Animals were examined daily for signs of tumor growth. Tumors were measured in two dimensions using calipers. Photographs of animals were taken at day 1, day 10, day 14, day 18, day 30, and day 60 after subcutaneous injection.
Hsd: Athymic nude nu/nu mice obtained from Harlan, Indianapolis, Ind. were used for the oral administration of COH-SR4 on lung cancer progression in in-vivo xenograft model. Twelve 10-weeks-old mice were divided into two groups of 6 animals (treated with corn oil (vehicle), and COH-SR4 4 mg/kg b.w.). […] Animals were examined daily for signs of tumor growth and body weights were recorded. […] Tumors were measured in two dimensions using calipers. […] The absorption of orally administered COH-SR4 in mice was assessed.

HRE promoter = HRE promoter luciferase reporter in U251; type: cell-based; conditions: U251, 1 or 3 μM, 24 hours, normoxic and hypoxic
Procedure: U251 cells were transfected with plasmids expressing luciferase reporter genes driven by a HRE reporter plasmid containing five copies of the HRE site (5×HRE). Transfected cells were then incubated with COH-SR4 at various concentrations (0, 1, or 3 μM) for 24 hours and assayed for luciferase activities. Data were represented as a ratio to vehicle control that was treated by DMSO.

[2] = system: CD133 sorted PBT-017 glioma cells; assay: Killing of CD133 sorted PBT-017 glioma cells; type: cell-based; conditions: 0-100 μM, 4 days
Procedure: CD133 positive glioma stem cells were sorted by FACS. Unsorted cells, CD133 positive cells, and CD133 negative PBT-017 glioma cells were treated with COH-SR4 at various concentrations (0˜100 μM) for 4 days, respectively. Data were represented as a ratio to untreated control, and plotted as mean±SEM (n=12) obtained from 2˜3 experiments (FIG. 39A).

H358 lung cancer tumor = assay: Histopathology of H358 tumor sections; type: in vivo, mouse; conditions: treated vs control
Procedure: For lung cancer studies, control and COH-SR4 treated H358 lung cancer bearing mice tumor sections were used for histopathologic analyses. Immuno-histochemistry analyses were performed for Ki67, CD31, E-cadherin, and pAMPK expressions. […] Sections were counterstained with Hematoxylin (blue). Photomicrographs at 40× magnification were acquired using Olympus DP 72 microscope and were processed with DP2-BSW software. Percent staining was determined by measuring positive immuno-reactivity per unit area. The intensity of antigen staining was quantified by digital image analysis using Image Pro plus 6.3 software.
Control and COH-SR4 treated tumor sections obtained from the in-vivo animal studies of Example 31 were used for histopathologic analyses. […] Arrows represent the area for positive staining for an antigen. Bars represent means with 95% confidence intervals (n=5). Asterisks denote statistically significant differences (p<0.001) compared with control by two-sided Student's t test. Statistical significance of difference was determined following image analyses as described in methods section.

B16-F0 [3] = assay: Colony formation assay, B16-F0; type: cell-based, mouse; conditions: 10 μM, vs untreated control
Procedure: Cell survival was evaluated using a standard colony-forming assay. […] After 7 or 10 days, adherent colonies were fixed, stained with 0.5% methylene blue for 30 min and colonies were counted using the Innotech Alpha Imager HP (91).

Compound: O=C(Nc1cc(Cl)cc(Cl)c1)Nc1cc(Cl)cc(Cl)c1 [COH-SR4, 1,3-bis(3,5-dichlorophenyl) urea]
- IC50 (B16-F0 [1]; B16F0, 48 h, 48 hours): ~14 µM
- IC50 (B16-F0 [1]; B16F0, 96 h, 96 hours): ~5 µM
- IC50 (H1417 cells): 1.2 ± 0.2 µM
- tumor weight (H358 lung cancer): 0.77 ± 0.2 g
- luciferase expression driven by HRE promoter (HRE promoter): inhibited luciferase expression driven by HRE promoter
- killing of CD133 positive, negative and unsorted cells [2]: effective in killing the CD133 positive glioma stem cells
- Ki67 and CD31 levels (H358 lung cancer tumor; ABC staining): decreased the levels of proliferation marker Ki67, and angiogenesis marker CD31
- pAMPK and E-cadherin levels (H358 lung cancer tumor): increased the levels of pAMPK and normal differentiation marker E-cadherin
- colony formation (B16-F0 [3]): 38±9%

Reference: US9808434B2, “Compound for treating cancer and diabetes” (CITY OF HOPE, priority 2011, dated 2017)
